Measurements from PubChem BioAssay (NCI).
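The compound was tested at five concentrations on cells cultured in 96-well plates, with a 48-hour exposure period. TGI is the concentration that stops growth completely.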

Experiments:
Assay in all cases: NCI-60 cell line screen, 48 h
LXFL 529 NSCLC = system: LXFL 529 NSCLC
NCI-H460 lung = system: NCI-H460 lung
MALME-3M melanoma = system: MALME-3M melanoma
SF-539 CNS = system: SF-539 CNS
SNB-78 CNS = system: SNB-78 CNS
DMS 114 small cell lung = system: DMS 114 small cell lung
CCRF-CEM leukemia = system: CCRF-CEM leukemia
COLO 205 colon = system: COLO 205 colon
M14 melanoma = system: M14 melanoma
DLD-1 colon = system: DLD-1 colon
NCI-H522 lung = system: NCI-H522 lung
IGROV1 ovarian = system: IGROV1 ovarian
RPMI-8226 leukemia = system: RPMI-8226 leukemia
SK-MEL-28 melanoma = system: SK-MEL-28 melanoma
RXF 393 renal = system: RXF 393 renal
SW-620 colon = system: SW-620 colon
A549 NSCLC = system: A549 NSCLC
EKVX NSCLC = system: EKVX NSCLC
ACHN renal = system: ACHN renal
HCT-116 colon = system: HCT-116 colon
LOX IMVI melanoma = system: LOX IMVI melanoma
SF-268 CNS = system: SF-268 CNS
786-0 renal = system: 786-0 renal
KM20L2 colon = system: KM20L2 colon
SNB-75 CNS = system: SNB-75 CNS
HOP-92 NSCLC = system: HOP-92 NSCLC
K-562 leukemia = system: K-562 leukemia
HT29 colon = system: HT29 colon
UACC-257 melanoma = system: UACC-257 melanoma
HOP-62 NSCLC = system: HOP-62 NSCLC
M19-MEL melanoma = system: M19-MEL melanoma
U251 CNS = system: U251 CNS
A498 renal = system: A498 renal
UO-31 renal = system: UO-31 renal
SK-OV-3 ovarian = system: SK-OV-3 ovarian
HCC-2998 colon = system: HCC-2998 colon
NCI-H23 lung = system: NCI-H23 lung
OVCAR-3 ovarian = system: OVCAR-3 ovarian
SN12C renal = system: SN12C renal
CAKI-1 renal = system: CAKI-1 renal
HCT-15 colon = system: HCT-15 colon
SNB-19 CNS = system: SNB-19 CNS
SK-MEL-5 melanoma = system: SK-MEL-5 melanoma
SF-295 CNS = system: SF-295 CNS
OVCAR-5 ovarian = system: OVCAR-5 ovarian
OVCAR-4 ovarian = system: OVCAR-4 ovarian
KM12 colon = system: KM12 colon
HOP-18 NSCLC = system: HOP-18 NSCLC
NCI-H226 lung = system: NCI-H226 lung
RXF-631 renal = system: RXF-631 renal
TK-10 renal = system: TK-10 renal
HL-60(TB) leukemia = system: HL-60(TB) leukemia
OVCAR-8 ovarian = system: OVCAR-8 ovarian
UACC-62 melanoma = system: UACC-62 melanoma
MOLT-4 leukemia = system: MOLT-4 leukemia
SK-MEL-2 melanoma = system: SK-MEL-2 melanoma
XF 498 CNS = system: XF 498 CNS
SR leukemia = system: SR leukemia
DMS 273 small cell lung = system: DMS 273 small cell lung

Measured: TGI

COC(=O)C(C#CCCCCC#CC(NC(=O)OCc1ccccc1)(C(=O)OC)C(F)(F)F)(NC(=O)OCc1ccccc1)C(F)(F)F (stereo unspecified)
not listed: MOLT-4 leukemia | SK-MEL-2 melanoma | XF 498 CNS | SR leukemia | DMS 273 small cell lung
> 100 µM: all other assays above

Cc1cc(NCCCCCCNc2cc(C)nc3cc(N(C)C)ccc23)c2ccc(N(C)C)cc2n1
25 µM: SK-OV-3 ovarian
21.4 µM: UACC-62 melanoma
62.6 µM: MALME-3M melanoma
29.5 µM: DMS 273 small cell lung
8.52 µM: HL-60(TB) leukemia
59 µM: XF 498 CNS
92.7 µM: SNB-19 CNS
not listed: LXFL 529 NSCLC | SNB-78 CNS | DMS 114 small cell lung | COLO 205 colon | IGROV1 ovarian | RPMI-8226 leukemia | A549 NSCLC | LOX IMVI melanoma | KM20L2 colon | HOP-92 NSCLC | HOP-18 NSCLC | NCI-H226 lung
> 100 µM: all other assays above
